According to the supplement of paper PMC10307832:

How the values were obtained:
Assay in all cases: relative viability (nuclei count vs DMSO), 5 days (fraction); higher = more cells survive
Doxorubicin + Navitoclax = compound: COc1cccc2c1C(=O)c1c(O)c3c(c(O)c1C2=O)C[C@@](O)(C(=O)CO)C[C@@H]3O[C@H]1C[C@H](N)[C@H](O)[C@H](C)O1 [Doxorubicin] + CC1(C)CCC(c2ccc(Cl)cc2)=C(CN2CCN(c3ccc(C(=O)NS(=O)(=O)c4ccc(N[C@H](CCN5CCOCC5)CSc5ccccc5)c(S(=O)(=O)C(F)(F)F)c4)cc3)CC2)C1 [Navitoclax] (partner 0.5 µM)
How it was run: (§1)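 Relative viability is defined as nuclei in treated wells over nuclei in vehicle wells. Duplicate plates were run and medians reported. Lung cancer cell lines in 1536-well plates were dosed by pin tool one day after seeding, with one drug or with a fixed anchor-drug dose plus five library-drug doses (not always all listed) in √10 steps, and nuclei were counted after 5 days.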

BAY61-3606 + Phenformin = compound: COC1=C(C=C(C=C1)C2=CC3=NC=CN3C(=N2)NC4=C(C=CC=N4)C(=O)N)OC [BAY61-3606] + N=C(N)NC(=N)NCCc1ccccc1 [Phenformin] (partner 250 µM)
How it was run: as §1

BAY61-3606 + Trametinib = compound: COC1=C(C=C(C=C1)C2=CC3=NC=CN3C(=N2)NC4=C(C=CC=N4)C(=O)N)OC [BAY61-3606] + CC(=O)Nc1cccc(-n2c(=O)n(C3CC3)c(=O)c3c(Nc4ccc(I)cc4F)n(C)c(=O)c(C)c32)c1 [Trametinib] (partner 0.02 µM)
How it was run: as §1

BAY61-3606 + Decitabine = compound: COC1=C(C=C(C=C1)C2=CC3=NC=CN3C(=N2)NC4=C(C=CC=N4)C(=O)N)OC [BAY61-3606] + Nc1ncn([C@H]2C[C@H](O)[C@@H](CO)O2)c(=O)n1 [Decitabine] (partner 2 µM)
How it was run: as §1

Cell Line	relative viability (Doxorubicin + Navitoclax; first compound 0.001 µM)	relative viability (Doxorubicin + Navitoclax; first compound 0.003162 µM)	relative viability (Doxorubicin + Navitoclax; first compound 0.01 µM)	relative viability (Doxorubicin + Navitoclax; first compound 0.03162 µM)	relative viability (Doxorubicin + Navitoclax; first compound 0.1 µM)	relative viability (BAY61-3606 + Phenformin; first compound 0.02 µM)	relative viability (BAY61-3606 + Phenformin; first compound 0.06325 µM)	relative viability (BAY61-3606 + Phenformin; first compound 0.2 µM)	relative viability (BAY61-3606 + Phenformin; first compound 0.6325 µM)	relative viability (BAY61-3606 + Phenformin; first compound 2 µM)	relative viability (BAY61-3606 + Trametinib; first compound 0.02 µM)	relative viability (BAY61-3606 + Trametinib; first compound 0.06325 µM)	relative viability (BAY61-3606 + Trametinib; first compound 0.2 µM)	relative viability (BAY61-3606 + Trametinib; first compound 0.6325 µM)	relative viability (BAY61-3606 + Trametinib; first compound 2 µM)	relative viability (BAY61-3606 + Decitabine; first compound 0.02 µM)	relative viability (BAY61-3606 + Decitabine; first compound 0.06325 µM)	relative viability (BAY61-3606 + Decitabine; first compound 0.2 µM)	relative viability (BAY61-3606 + Decitabine; first compound 0.6325 µM)	relative viability (BAY61-3606 + Decitabine; first compound 2 µM)
NCI-H2126	0.853	0.826	0.864	0.884	0.928	0.547	0.496	0.524	0.491	0.47	0.622	0.539	0.514	0.567	0.57	0.631	0.606	0.583	0.623	0.555
NCI-H1915	0.778	0.813	0.788	0.784	0.829	0.369	0.376	0.328	0.366	0.261	0.35	0.29	0.325	0.315	0.246	0.258	0.261	0.265	0.253	0.23
ChaGo-K-1	1.16	0.807	0.888	0.515	0.316	0.513	0.451	0.515	0.462	0.52	0.947	0.893	0.921	0.872	0.939	0.53	0.543	0.479	0.51	0.531
PC-14	0.997	1.1	0.973	1.01	0.945	0.752	0.357	0.579	0.532	0.536	0.732	0.887	0.732	1.01	0.607	–	0.244	0.246	0.203	0.226
COR-L23	1.03	1.12	0.82	0.63	0.169	0.474	0.438	0.495	0.466	0.352	0.725	0.668	0.635	0.751	0.558	0.398	0.441	0.455	0.485	0.363
COR-L 105	0.965	0.721	0.724	0.48	0.377	0.494	0.506	0.435	0.413	0.323	0.474	0.414	0.463	0.429	0.436	0.764	0.672	0.543	0.63	0.475
LK-2	0.894	0.875	0.889	0.638	0.804	0.389	0.307	0.368	0.463	0.221	0.727	0.806	0.897	0.915	0.683	0.319	0.287	0.362	0.28	0.342
